This data set relates to mice. The class given is in vivo. The settings on record: oral administration at 5 g/kg weight. The source says: The composition of the present invention is based on action for suppressing the craving for smoking that has been found for the theanine for the first time. The theanine has been known to be a main ingredient of sapidity in tea and used as a food additive for the sapidity. […] There is no limitation in an amount of addition based on the Food Hygiene Law. Further, unlike a conventional nicotine preparation, since there is no dependence, the composition of the present invention can suppress the craving for smoking safely and effectively.

In the case of `CCNC(=O)CC[C@H](N)C(=O)O` [theanine, γ-glutamyl ethylamide], the “death in acute toxicity test” value is listed as “no case of death”.

The record behind these values is patent US7094787B2, “Compositions for regulating desire for smoking” (Taiyo Kagaku Co., Ltd., priority 2000, dated 2006).
